Experimental findings from BindingDB's records for doi:10.1111/j.1476-5381.1988.tb11723.x (Ciba-Geigy, 1988) are described below.

Molecules are shown by their SMILES. Values joined by “and” are separate entries in the source; they are usually repeats but may differ in a detail not shown here. Identical values can stand only once.

In general, Ki refers to a measure of affinity in units of concentration, obtained from inhibition or displacement. A higher Ki goes with weaker binding.

The target of the experiment is Glutamate receptor ionotropic, NMDA 1 (Rattus norvegicus, UniProt P35439).

For `O=C(O)c1cccnc1C(=O)O` [pyridine-2,3-dicarboxylic acid], the Ki is above 10000 nM. With `O=C(O)c1cccc(C(=O)O)n1` [Dipicolinate] the figure was above 10000 nM; with `N[C@@H](CC(=O)O)C(=O)O` [L-Aspartic acid, 2], 1400 nM and 1600 nM; with `O=C(O)[C@@H]1C[C@H](CP(=O)(O)O)CCN1` [Selfotel], 140 nM. With `NC(CCCCCP(=O)(O)O)C(=O)O` (stereo not drawn) [DL-AP7] the figure was 900 nM and 1100 nM; with `N[C@H](CC(=O)O)C(=O)O`, 800 nM and 900 nM; with `CCOC(=O)CC[C@H](N)C(=O)OCC` [glutamic acid diethyl ester], above 10000 nM.

`N[C@@H](Cn1oc(=O)[nH]c1=O)C(=O)O` [2-amino-3-(3,5-dioxo[1,2,4]oxadiazolidin-2-yl)propionic acid] had a Ki above 10000 nM. With `O=C(O)[C@H]1CN(CCCP(=O)(O)O)CCN1` [CPP] the figure was 220 nM and 150 nM; with `CN[C@H](CC(=O)O)C(=O)O` [NMDA], 4100 nM and 5600 nM.

For `N[C@H](CCCP(=O)(O)O)C(=O)O` [CB3371309], the Ki was 350 nM and 400 nM.
